Results reported in PMC7918733, “Biological Profiling of Semisynthetic C19-Functionalized Ferruginol and Sugiol Analogues” (Antibiotics, 2021).
Where two headings read alike, the source gives them in different places.

Legend:
[1] = test system: L. guyanensis promastigotes; parameters: method as in PMID 30840453; conditions: C18-congeners, cited from earlier work; for IC50: read-out: L. guyanensis IC50 ± SD
A549 (Lung) = conditions: cited from earlier work
HBL-100 (Breast) = conditions: cited from earlier work
HeLa (Cervix) = conditions: cited from earlier work
SW1573 (Lung) = conditions: cited from earlier work
T-47D (Breast) = conditions: cited from earlier work
WiDr (Colon) = conditions: cited from earlier work
Macrophages J774 = conditions: cited from earlier work
[2] = target: T1, GABAA receptor subtype (α1β2γ2S) (Homo sapiens, UniProt P14867+P18507+P47870); parameters: expressed in transfected cells; host or cells: Xenopus laevis oocytes; conditions: cited from earlier work
P. falciparum 3D7 strain = test: Antiplasmodial DNA stain-based growth assay; format: cell-based; conditions: Plasmodium falciparum, 3D7, 72 h, read-out: P. falciparum 3D7 EC50
Protocol: (§1) Assays were performed by using previously described DNA stain-based assay and methods, including cytotoxicity assays.

P. falciparum K1 strain = test: Antiplasmodial DNA stain-based growth assay; format: cell-based; conditions: Plasmodium falciparum, K1, 72 h, read-out: P. falciparum K1 EC50
Protocol: as §1

BJ = test: Cytotoxicity on mammalian cell lines; format: cell-based; conditions: Homo sapiens, read-out: BJ EC50
Protocol: as §1

HEK293 = test: Cytotoxicity on mammalian cell lines; format: cell-based; conditions: Homo sapiens, HEK293, read-out: HEK293 EC50
Protocol: as §1

HepG2 = test: Cytotoxicity on mammalian cell lines; format: cell-based; conditions: Homo sapiens, HepG2, read-out: HepG2 EC50
Protocol: as §1

RAJI = test: Cytotoxicity on mammalian cell lines; format: cell-based; conditions: Homo sapiens, read-out: RAJI EC50
Protocol: as §1

[3] = target: T1, GABAA receptor subtype (α1β2γ2S); test: Two-microelectrode voltage-clamp in Xenopus laevis oocytes
Protocol: All molecules were tested at concentrations of 10, 100 μM and compared with dehydroabietic acid (DHA) (3) as a reference [16].

[4] = test system: L. infantum promastigotes; parameters: method as in PMID 30840453; conditions: C18-congeners, read-out: L. infantum IC50 ± SD; cited from earlier work
[5] = test system: L. donovani promastigotes; conditions: C18-congeners, read-out: L. donovani IC50 ± SD; cited from earlier work
[6] = test system: L. amazonensis promastigotes; parameters: method as in PMID 30840453; conditions: C18-congeners, read-out: L. amazonensis IC50 ± SD; cited from earlier work
[7] = read-out: Macrophages J774 CC50, C18-congeners

T1 sequence (P14867 28-456): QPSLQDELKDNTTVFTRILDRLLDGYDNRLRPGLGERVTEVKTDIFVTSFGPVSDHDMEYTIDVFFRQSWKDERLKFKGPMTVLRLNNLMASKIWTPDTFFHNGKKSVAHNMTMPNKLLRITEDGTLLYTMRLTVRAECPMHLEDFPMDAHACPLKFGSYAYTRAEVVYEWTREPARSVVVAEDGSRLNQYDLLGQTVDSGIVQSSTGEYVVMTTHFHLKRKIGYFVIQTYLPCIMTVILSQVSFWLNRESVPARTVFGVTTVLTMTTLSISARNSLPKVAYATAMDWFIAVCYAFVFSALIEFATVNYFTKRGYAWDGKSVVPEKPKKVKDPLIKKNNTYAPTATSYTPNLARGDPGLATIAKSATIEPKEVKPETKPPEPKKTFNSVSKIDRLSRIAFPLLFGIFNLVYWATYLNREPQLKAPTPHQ
T1 sequence (P47870 26-512): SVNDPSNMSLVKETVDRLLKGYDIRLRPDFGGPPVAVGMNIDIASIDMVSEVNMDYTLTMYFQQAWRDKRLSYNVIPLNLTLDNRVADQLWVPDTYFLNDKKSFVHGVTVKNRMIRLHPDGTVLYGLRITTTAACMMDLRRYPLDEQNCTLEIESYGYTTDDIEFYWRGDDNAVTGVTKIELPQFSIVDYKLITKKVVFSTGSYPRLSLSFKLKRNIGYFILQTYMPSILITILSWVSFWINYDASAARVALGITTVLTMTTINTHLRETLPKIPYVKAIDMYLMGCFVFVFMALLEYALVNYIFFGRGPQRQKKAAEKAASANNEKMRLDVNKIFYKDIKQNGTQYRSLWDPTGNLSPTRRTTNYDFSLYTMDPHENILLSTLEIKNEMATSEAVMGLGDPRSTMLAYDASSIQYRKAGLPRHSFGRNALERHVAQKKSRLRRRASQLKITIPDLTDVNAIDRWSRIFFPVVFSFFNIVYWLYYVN
T1 sequence (P18507 40-467 isoform P18507-1 limits assumed): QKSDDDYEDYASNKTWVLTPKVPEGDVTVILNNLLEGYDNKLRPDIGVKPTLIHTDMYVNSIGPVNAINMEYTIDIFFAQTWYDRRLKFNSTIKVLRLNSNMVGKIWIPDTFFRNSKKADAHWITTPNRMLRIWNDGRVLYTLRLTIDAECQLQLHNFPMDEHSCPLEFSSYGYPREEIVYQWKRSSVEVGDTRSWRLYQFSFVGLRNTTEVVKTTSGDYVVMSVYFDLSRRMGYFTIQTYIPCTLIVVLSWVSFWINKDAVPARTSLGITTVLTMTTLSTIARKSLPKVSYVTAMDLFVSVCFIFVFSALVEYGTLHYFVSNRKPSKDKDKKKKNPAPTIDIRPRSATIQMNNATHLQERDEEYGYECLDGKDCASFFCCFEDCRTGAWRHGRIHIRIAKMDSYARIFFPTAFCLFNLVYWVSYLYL

| SMILES | GI50 (A549 (Lung); C18-congeners) [µM] | GI50 (HBL-100 (Breast); C18-congeners) [µM] | GI50 (HeLa (Cervix); C18-congeners) [µM] | GI50 (SW1573 (Lung); C18-congeners) [µM] | GI50 (T-47D (Breast); C18-congeners) [µM] | GI50 (WiDr (Colon); C18-congeners) [µM] | IGABA Potentiation of 10 µM (%) ([2]; C18-congeners) | IGABA Potentiation of 100 µM (%) ([2]; C18-congeners) | IC50 [4] [nM] | IC50 [5] [µM] | IC50 [6] [µM] | IC50 [1] [µM] | CC50 (Macrophages J774; [7]) [µM] | other results |
| --- | --- | --- | --- | --- | --- | --- | --- | --- | --- | --- | --- | --- | --- | --- |
| CC(C)c1cc2c(cc1O)C1(C)CCCC(C)(C(=O)O)C1CC2=O (single isomer, unassigned; (+)) [Compound 8b, (+)-liquiditerpenoic acid A] | > 100 | > 100 | 85 ± 21 | > 100 | > 100 | > 100 | −2.2 ± 4.4 | −21.1 ± 7.1 |  |  |  |  |  | L. guyanensis IC50 ± SD [1]: inactive; CC50 (Macrophages J774): 219 ± 15 µM |
| CCN(CC)CCCC(C)Nc1ccnc2cc(Cl)ccc12 (stereo not drawn) [Chloroquine, reference compound] |  |  |  |  |  |  |  |  |  |  |  |  |  | EC50 (P. falciparum 3D7 strain): 23 nM; EC50 (P. falciparum K1 strain): 690 nM; EC50 (BJ): > 25 µM; EC50 (HEK293): > 25 µM; EC50 (HepG2): > 25 µM; EC50 (RAJI): > 25 µM |
| CC(C)c1cc2c(cc1O)[C@@]1(C)CCCC(C)(C)[C@@H]1CC2=O [Compound 2, sugiol] |  |  |  |  |  |  |  |  |  |  |  |  |  | GI50 (A549 (Lung)): 79.8 ± 2.2 µM |
| CC(C)c1ccc2c(c1)CC[C@H]1[C@](C)(C(=O)O)CCC[C@]21C [Compound 3, dehydroabietic acid, reference compound] |  |  |  |  |  |  |  |  |  |  |  |  |  | activation at 10 µM ([3]; read-out: IGABA Potentiation of 10 µM (%)): 192 ± 10%; activation at 100 µM ([3]; read-out: IGABA Potentiation of 100 µM (%)): 789 ± 82% |
| CC(C)c1ccc2c(c1)CC[C@H]1[C@@](C)(C(=O)O)CCC[C@]21C [Compound 6, callitrisic acid] |  |  |  |  |  |  |  |  |  |  |  |  |  | IGABA Potentiation of 10 µM (%) [2]: 14 ± 5%; IGABA Potentiation of 100 µM (%) [2]: 269 ± 24% |
| COC(=O)[C@@]1(C)CCC[C@]2(C)c3ccc(C(C)C)cc3CC[C@@H]12 [Compound 7, methyl callitrisate] |  |  |  |  |  |  |  |  |  |  |  |  |  | GI50 (A549 (Lung)): 10 ± 1.9 µM; GI50 (HBL-100 (Breast)): 14 ± 5 µM; GI50 (HeLa (Cervix)): 16 ± 2.5 µM; GI50 (SW1573 (Lung)): 17 ± 2.2 µM; GI50 (T-47D (Breast)): 8.8 ± 2.7 µM; GI50 (WiDr (Colon)): 6.4 ± 2.1 µM |
| COC(=O)[C@]1(C)CCC[C@]2(C)c3cc(OC(C)=O)c(C(C)C)cc3CC[C@@H]12 [Compound 10b] | 11 ± 1.8 | 15 ± 3.9 | 4.4 ± 1.1 | 12 ± 3.2 | 14 ± 2.9 | 16 ± 2.5 | 5.1 ± 2.1 | 26.3 ± 8.9 | 1300 ± 100 | 8.1 ± 0.7 | 3.2 ± 0.3 | 5.5 ± 0.7 | 26.5 ± 2.7 |  |
| COC(=O)[C@]1(C)CCC[C@]2(C)c3cc(OC(C)=O)c(C(C)C)cc3C(=O)C[C@@H]12 [Compound 11b] | 14 ± 0.4 | 16 ± 1.5 | 13 ± 2.3 | 17 ± 1.9 | 20 ± 2.9 | 19 ± 1.7 | −1.0 ± 2.8 | 46.7 ± 8.3 | 700 ± 200 | 4.4 ± 0.5 | 0.65 ± 0.03 | 1.3 ± 0.1 | 17.8 ± 2.8 |  |
| COC(=O)[C@]1(C)CCC[C@]2(C)c3cc(O)c(C(C)C)cc3CC[C@@H]12 [Compound 12b] | 9.4 ± 2.6 | 9.7 ± 2.7 | 5.8 ± 0.5 | 11 ± 2 | 19 ± 3.8 | 23 ± 4.4 | 23.7 ± 9.6 | 378.0 ± 65.6 | 5000 ± 300 | 9.21 ± 0.06 | 3.9 ± 0.1 | 5.9 ± 1.1 | 34.2 ± 3.1 |  |
